In ChEMBL document CHEMBL1201862, “PubChem BioAssay data set” (2004):
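All cell lines were grown in 96-well plates and treated with compound for 48 hours. GI50 marks 50% less growth.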 Activity calls are given as the source filed them. Cut-off read from the data, not from the text of the source: active = GI50 up to about 1.1 µM and inactive = higher.

Key:
Experiment in all cases: NCI tumour cell line growth inhibition, 48 h
BT-549 = system: BT-549
SK-MEL-2 = system: SK-MEL-2
U-251 = system: U-251
786-0 = system: 786-0
M14 = system: M14
COLO 205 = system: COLO 205
SNB-19 = system: SNB-19
A549 = system: A549
MOLT-4 = system: MOLT-4
SK-MEL-5 = system: SK-MEL-5
MDA-MB-231 = system: MDA-MB-231
TK-10 = system: TK-10
K562 = system: K562
NCI/ADR-RES = system: NCI/ADR-RES
MCF7 = system: MCF7
UACC-257 = system: UACC-257
MDA-MB-435 = system: MDA-MB-435
OVCAR-8 = system: OVCAR-8
OVCAR-3 = system: OVCAR-3
LOX IMVI = system: LOX IMVI

Row | SMILES | GI50 (BT-549) | GI50 (SK-MEL-2) | GI50 (U-251) | GI50 (786-0) | GI50 (M14) | GI50 (COLO 205) | GI50 (SNB-19) | GI50 (A549) | GI50 (MOLT-4) | GI50 (SK-MEL-5) | GI50 (MDA-MB-231) | GI50 (TK-10) | GI50 (K562) | GI50 (NCI/ADR-RES) | GI50 (MCF7) | GI50 (UACC-257) | GI50 (MDA-MB-435) | GI50 (OVCAR-8) | GI50 (OVCAR-3) | GI50 (LOX IMVI)
1 | Nn1c(CCCCCCCCc2nnc(COc3ccc(Cl)cc3Cl)n2N)nnc1COc1ccc(Cl)cc1Cl | 35.9 µM (inactive) | 42 µM (inactive) | 62.4 µM (inactive) | 63.5 µM (inactive) | 49.3 µM (inactive) | 25.8 µM (inactive) | 30.9 µM (inactive) | 32.7 µM (inactive) | 20 µM (inactive) | 38.5 µM (inactive) | 52.4 µM (inactive) | 89.9 µM (inactive) | 63.8 µM (inactive) | 31.1 µM (inactive) | 34.9 µM (inactive) | 61.5 µM (inactive) | 48.3 µM (inactive) |  |  | 
2 | C/C=C\C(CC(=O)O)CN1CCC2=C(C1)C(S(=O)(=O)C(F)(F)F)c1ccccc12 (stereo not drawn) | > 100 µM (inactive) | > 100 µM (inactive) | > 100 µM (inactive) | > 100 µM (inactive) | > 100 µM (inactive) | > 100 µM (inactive) | > 100 µM (inactive) | > 100 µM (inactive) | > 100 µM (inactive) | > 100 µM (inactive) | > 100 µM (inactive) |  | > 100 µM (inactive) | > 100 µM (inactive) | > 100 µM (inactive) | > 100 µM (inactive) | > 100 µM (inactive) | > 100 µM (inactive) | > 100 µM (inactive) | 
3 | CCCC[P+](CCCC)(CCCC)C(C(=O)OC)C(C(=O)OC)=C1SC(C(=O)OC)=C(C(=O)OC)S1 (stereo not drawn) | > 100 µM (inactive) | > 100 µM (inactive) | > 100 µM (inactive) | > 100 µM (inactive) | > 100 µM (inactive) | > 100 µM (inactive) | > 100 µM (inactive) | > 100 µM (inactive) | > 100 µM (inactive) | > 100 µM (inactive) | > 100 µM (inactive) | > 100 µM (inactive) |  | > 100 µM (inactive) | > 100 µM (inactive) | > 100 µM (inactive) | > 100 µM (inactive) | > 100 µM (inactive) | > 100 µM (inactive) | > 100 µM (inactive)
4 | C=CCN(Cc1ccncc1)C(=O)C(O)(c1ccccc1)c1ccccc1 | 11.8 µM (inactive) |  | 76.2 µM (inactive) | > 100 µM (inactive) | 56 µM (inactive) | 45.8 µM (inactive) | 95.7 µM (inactive) | 79.3 µM (inactive) | 27.8 µM (inactive) | 62.8 µM (inactive) | > 100 µM (inactive) | > 100 µM (inactive) | 45.2 µM (inactive) | 17.7 µM (inactive) | 59.3 µM (inactive) | 79.3 µM (inactive) | 17.3 µM (inactive) | 86.9 µM (inactive) | 50.6 µM (inactive) | 97.9 µM (inactive)
5 | COc1ccc(C2=CN3CCC[C@H]3C=C2c2cc(O)c(OC)c(OC)c2)cc1OC | 0.0207 µM (active) | 0.00314 µM (active) | 0.00416 µM (active) | 0.00371 µM (active) | 0.00325 µM (active) | 0.0115 µM (active) | 0.00309 µM (active) | 0.00394 µM (active) | 0.00351 µM (active) | 0.0038 µM (active) | 0.00631 µM (active) | 0.00859 µM (active) | 0.00339 µM (active) |  | 0.005 µM (active) | 0.00646 µM (active) | 0.00284 µM (active) | 0.00377 µM (active) | 0.00615 µM (active) | 0.00163 µM (active)
6 | COc1ccc(-c2nc(-c3ccc(OC)cc3)n(-c3ccccc3)n2)cc1 | 38.5 µM (inactive) | > 100 µM (inactive) | 78.9 µM (inactive) | > 100 µM (inactive) | 68.7 µM (inactive) | 46.9 µM (inactive) | 57.8 µM (inactive) | 56.6 µM (inactive) | 16.1 µM (inactive) | 54.1 µM (inactive) | 50.2 µM (inactive) | > 100 µM (inactive) |  | > 100 µM (inactive) | > 100 µM (inactive) | > 100 µM (inactive) | > 100 µM (inactive) | > 100 µM (inactive) | 46.8 µM (inactive) | 41.1 µM (inactive)
7 | CC(=O)Oc1ccccc1-c1cc2ccccc2oc1=O | > 100 µM (inactive) | > 100 µM (inactive) |  | > 100 µM (inactive) | > 100 µM (inactive) | > 100 µM (inactive) | > 100 µM (inactive) | > 100 µM (inactive) | > 100 µM (inactive) |  | > 100 µM (inactive) |  | > 100 µM (inactive) | 76.9 µM (inactive) | > 100 µM (inactive) | > 100 µM (inactive) | > 100 µM (inactive) | > 100 µM (inactive) | 22.4 µM (inactive) | > 100 µM (inactive)
